The subject of one test is DfrA43. Briefly: NADPH oxidation followed at […] nm, nonlinear regression. To be noted: 100 uM NADPH; dihydrofolate 5-100 uM; 50 mM Tris-HCl, 50 mM KCl, pH 7.5; ~25 C. In kind it is biochemical.
Another test deals with DfrA52. Described as above. The format is biochemical, Escherichia phage vB_EcoM_BMB16. To be noted: 100 uM NADPH; dihydrofolate 5-100 uM; 50 mM Tris-HCl, 50 mM KCl, pH 7.5; ~25 C.

Km data for one molecule are collected here from PMC12466917, “Evolutionary selection of trimethoprim-resistant dfrA genes in lytic phages affects phage and host fitness during infection” (Science Advances, 2025).

As usually defined, the Km is the concentration of substrate that gives half-maximal velocity.

Regarding `Nc1nc2c(c(=O)[nH]1)N=C(CNc1ccc(C(=O)N[C@@H](CCC(=O)O)C(=O)O)cc1)CN2` [dihydrofolate], the figures for the Km in the test on DfrA43 and with DfrA52 were 47.6 ± 21.6 µM and 167 ± 34.8 µM, respectively.
